Experimental data: patent US7807676B2, “Diketo-Piperazine and Piperidine derivatives as antiviral agents” (priority 2006, dated 2010)
Structures can show the parent of a compound that is named as a salt.

Tested on: HIV-1 single-round infectious reporter virus
Assay: Single-round infectious HIV-1 luciferase reporter virus infection of HeLa CD4 cells (antiviral EC50)
Assay type: cell-based
Conditions: Human immunodeficiency virus 1, HeLa, read-out: EC50 Group from Table 3
Method: • Virus production—Human embryonic Kidney cell line, 293T, was propagated in Dulbecco's Modified Eagle Medium (Invitrogen, Carlsbad, Calif.) containing 10% fetal Bovine serum (FBS, Sigma, St. Louis, Mo.). • Virus infection—Human epithelial cell line, HeLa, expressing the HIV-1 receptor CD4 was propagated in Dulbecco's Modified Eagle Medium (Invitrogen, Carlsbad, Calif.) containing 10% fetal Bovine serum (FBS, Sigma, St. Louis, Mo.) and supplemented with 0.2 mg/mL Geneticin (Invitrogen, Carlsbad, Calif.). Virus-Single-round infectious reporter virus was produced by co-transfecting human embryonic Kidney 293 cells with an HIV-1 envelope DNA expression vector and a proviral cDNA containing an envelope deletion mutation and the luciferase reporter gene inserted in place of HIV-1 nef sequences (Chen et al, Ref. 41). Transfections were performed using lipofectAMINE PLUS reagent as described by the manufacturer (Invitrogen, Carlsbad, Calif.). Experiment • 1. HeLa CD4 cells were plated in 96 well plates at a cell density of 1×10^4 cells per well in 100 μl Dulbecco's Modified Eagle Medium containing 10% fetal Bovine serum and incubated overnight. • 2. Compound was added in a 2 μl dimethylsulfoxide solution, so that the final assay concentration would be ≦10 μM. • 3. 100 μl of single-round infectious reporter virus in Dulbecco's Modified Eagle Medium was then added to the plated cells and compound at an approximate multiplicity of infection (MOI) of 0.01, resulting in a final volume of 200 μl per well. • 4. Virally-infected cells were incubated at 37 degrees Celsius, in a CO2 incubator, and harvested 72 h after infection. • 5. Viral infection was monitored by measuring luciferase expression from viral DNA in the infected cells using a luciferase reporter gene assay kit, as described by the manufacturer (Roche Molecular Biochemicals, Indianapolis, Ind.). Infected cell supernatants were removed and 50 μl of lysis buffer was added per well. After 15 minutes, 50 μl of freshly-reconstituted luciferase assay reagent was added per well. Luciferase activity was then quantified by measuring luminescence using a Wallac microbeta scintillation counter. • 6. The percent inhibition for each compound was calculated by quantifying the level of luciferase expression in cells infected in the presence of each compound as a percentage of that observed for cells infected in the absence of compound and subtracting such a determined value from 100. • 7. An EC50 provides a method for comparing the antiviral potency of the compounds of this disclosure. The effective concentration for fifty percent inhibition (EC50) was calculated with the Microsoft Excel Xlfit curve fitting software. For each compound, curves were generated from percent inhibition calculated at 10 different concentrations by using a four parameter logistic model (model 205). Table 3 is the key for the data in Table 4. Results

| Structure (SMILES) | EC50 |
| --- | --- |
| COc1cnc(-n2cnc(C)n2)c2[nH]cc(C(=O)C(=O)N3CCN(c4snnc4-c4ccccc4)C[C@H]3C)c12 [D-14] | < 500 nM |
| COc1cnc(-n2cnc(C)n2)c2[nH]cc(C(=O)C(=O)N3CCN(c4ncnn4-c4ccccc4)CC3)c12 [G-27b] | < 500 nM |
| CN(C)c1cnc(C(=O)NCCO)c2[nH]cc(C(=O)C(=O)N3CCN(c4nnnn4-c4ccccc4)CC3)c12 [B-56] | < 500 nM |
| O=C(NCCN1CCOCC1)c1cc(-c2ncc(F)c3c(C(=O)C(=O)N4CCN(c5nnnn5-c5ccccc5)CC4)c[nH]c23)n[nH]1 [B-42] | < 500 nM |
| O=C(C(=O)N1CCC(N2C(=O)CC2c2ccccc2)CC1)c1c[nH]c2c(-n3ccnn3)ncc(F)c12 (stereo not shown) [A-21] | < 500 nM |
| O=C(C(=O)N1CCN(c2nnnn2-c2ccccc2)CC1)c1c[nH]c2c(-c3cc(C(=O)N4CC[C@@H](O)C4)[nH]n3)ncc(F)c12 [F-3] | < 500 nM |
| C[C@@H]1CN(c2nn(C)c(=O)cc2-c2ccccc2)CCN1C(=O)C(=O)c1c[nH]c2c(-n3ccnn3)ncc(F)c12 [D-36] | > 500 nM |
| O=C(C(=O)N1CCN(c2nonc2-c2ccccc2)CC1)c1c[nH]c2c(-n3ccnn3)ncc(F)c12 [G-1b] | < 500 nM |
| COc1cnc(-c2cc(C(=O)O)[nH]n2)c2[nH]cc(C(=O)C(=O)N3CCN(c4nnnn4-c4ccccc4)CC3)c12 [B-21, 3-(4-methoxy-3-(2-oxo-2-(4-(1-phenyl-1H-tetrazol-5-yl)piperazin-1-yl)acetyl)-1H-pyrrolo[2,3-c]pyridin-7-yl)-1H-pyrazole-5-carboxylic acid] | < 500 nM |
| COc1cnc(-c2cc(CO)[nH]n2)c2[nH]cc(C(=O)C(=O)N3CCN(c4nnnn4-c4ccccc4)CC3)c12 [B-22, 1-(7-(5-(hydroxymethyl)-1H-pyrazol-3-yl)-4-methoxy-1H-pyrrolo[2,3-c]pyridin-3-yl)-2-(4-(1-phenyl-1H-tetrazol-5-yl)piperazin-1-yl)ethane-1,2-dione] | < 500 nM |
| COc1cnc(-n2cnc(C)n2)c2[nH]cc(C(=O)C(=O)N3CCN(c4nccn4-c4ccccc4)CC3)c12 [A-54] | < 500 nM |
| COc1cnc(-n2cnc(C)n2)c2[nH]cc(C(=O)C(=O)N3C[C@H](C)N(c4nnnn4-c4ccccc4)C[C@H]3C)c12 [A-32] | < 500 nM |
| COc1cnc(-c2cncnc2)c2[nH]cc(C(=O)C(=O)N3CCN(c4nnnn4-c4ccccc4)CC3)c12 [B-63] | < 500 nM |
| O=C(C(=O)N1CCC(C2=NCCN2c2ccccc2)CC1)c1c[nH]c2c(-n3ccnn3)ncc(F)c12 [G-17a] | > 500 nM |
| CCOC(=O)c1ncc(F)c2c(C(=O)C(=O)N3CCN(c4nnnn4-c4ccccc4)CC3)c[nH]c12 [B-57] | < 500 nM |
| CN(C)c1nc(N2CCN(C(=O)C(=O)c3c[nH]c4c(-n5ccnn5)ncc(F)c34)CC2)n(-c2ccccc2)n1 [G-4a] | < 500 nM |
| CC(=O)Nc1ncc(F)c2c(C(=O)C(=O)N3CCN(c4nnnn4-c4ccccc4)CC3)c[nH]c12 [B-18, N-(4-fluoro-3-(2-oxo-2-(4-(1-phenyl-1H-tetrazol-5-yl)piperazin-1-yl)acetyl)-1H-pyrrolo[2,3-c]pyridin-7-yl)acetamide] | > 500 nM |
| COc1cnc(-n2cnc(C)n2)c2[nH]cc(C(=O)C(=O)N3CCN(c4ncccc4C(=O)N4CCOCC4)C[C@H]3C)c12 [D-13] | > 500 nM |
| COc1cnc(-c2cc(C(=O)NCCc3ccncc3)[nH]n2)c2[nH]cc(C(=O)C(=O)N3CCN(c4nnnn4-c4ccccc4)CC3)c12 [B-12, 3-(4-methoxy-3-(2-oxo-2-(4-(1-phenyl-1H-tetrazol-5-yl)piperazin-1-yl)acetyl)-1H-pyrrolo[2,3-c]pyridin-7-yl)-N-(2-(pyridin-4-yl)ethyl)-1H-pyrazole-5-carboxamide.TFA] | < 500 nM |
| O=C(NCCO)c1ncc(F)c2c(C(=O)C(=O)N3CCN(c4nnnn4-c4ccccc4)CC3)c[nH]c12 [B-55] | < 500 nM |
| COc1cnc(-n2cnc(C)n2)c2[nH]cc(C(=O)C(=O)N3CCN(c4nc(SC)nn4-c4ccccc4)CC3)c12 [G-26b] | < 500 nM |
| COc1cnc(-n2cnc(C)n2)c2[nH]cc(C(=O)C(=O)N3CCC(c4nccn4-c4ccccc4)CC3)c12 [G-18b] | < 500 nM |
| CN1CCC(N(C)C(=O)c2cc(-c3ncc(F)c4c(C(=O)C(=O)N5CCN(c6nnnn6-c6ccccc6)CC5)c[nH]c34)n[nH]2)C1 (stereo not shown) [F-2] | < 500 nM |
| CC(=O)N1CCN(C(=O)c2cc(-c3ncc(F)c4c(C(=O)C(=O)N5CCN(c6nnnn6-c6ccccc6)CC5)c[nH]c34)n[nH]2)CC1 [F-5] | < 500 nM |
| O=C(C(=O)N1CCC(c2nc3ccccc3n2-c2ccccc2)CC1)c1c[nH]c2c(-n3ccnn3)ncc(F)c12 [A-16] | < 500 nM |
| COc1ccncc1-c1ncc(OC)c2c(C(=O)C(=O)N3CCN(c4nnnn4-c4ccccn4)CC3)c[nH]c12 [H-6] | < 500 nM |

| Structure (SMILES) | EC50 |
| --- | --- |
| CCOC(=O)Cn1cc(N2CCN(C(=O)C(=O)c3c[nH]c4c(-n5ccnn5)ncc(F)c34)CC2)c(-c2ccccc2)n1 [G-20] | < 500 nM |
| COc1cnc(-n2cnc(C)n2)c2[nH]cc(C(=O)C(=O)N3CCN(C4=NCCN4c4ccccc4)CC3)c12 [G-12b] | < 500 nM |
| O=C(C(=O)N1CCN(c2nnnn2-c2ccccc2)CC1)c1c[nH]c2c(-c3cc(C(=O)N4CCC[C@H]4CO)[nH]n3)ncc(F)c12 [F-6] | < 500 nM |
| O=C(C(=O)N1CCN(c2nn[nH]c2-c2ccccn2)CC1)c1c[nH]c2c(-n3ccnn3)ncc(F)c12 [G-24a] | < 500 nM |
| O=C(C(=O)N1CCN(c2ncccc2C(=O)N2CCOCC2)CC1)c1c[nH]c2c(-n3ccnn3)ncc(F)c12 [D-38] | > 500 nM |
| CN(C)CCn1cc(N2CCN(C(=O)C(=O)c3c[nH]c4c(-n5ccnn5)ncc(F)c34)CC2)c(-c2ccccc2)n1 [G-6b] | < 500 nM |
| COc1cnc(-c2cnc(N3CCN(C)CC3)cn2)c2[nH]cc(C(=O)C(=O)N3CCN(c4nnnn4-c4ccccc4)CC3)c12 [G-2a] | < 500 nM |
| Cc1nc(N2CCN(C(=O)C(=O)c3c[nH]c4c(-n5ccnn5)ncc(F)c34)CC2)n(-c2ccccc2)n1 [G-32] | < 500 nM |
| CCOc1ccccc1N1CCN(C(=O)C(=O)c2c[nH]c3c(-n4ccnn4)ncc(F)c23)CC1 [A-50] | < 500 nM |
| COc1cnc(C(=O)NCCO)c2[nH]cc(C(=O)C(=O)N3CCN(c4nnnn4-c4ccccc4)CC3)c12 [B-64] | < 500 nM |
| COc1ncc(OC)c2c(C(=O)C(=O)N3CCN(c4nnnn4-c4ccccc4)CC3)c[nH]c12 [A-12] | < 500 nM |
| O=C(C(=O)N1CCN(c2ncccc2I)CC1)c1c[nH]c2c(-n3ccnn3)ncc(F)c12 [D-5] | < 500 nM |
| COc1cnc(-c2ccc(F)nc2)c2[nH]cc(C(=O)C(=O)N3CCN(c4nnnn4-c4ccccn4)CC3)c12 [H-13] | < 500 nM |
| CCc1ncc(-c2ncc(OC)c3c(C(=O)C(=O)N4CCN(c5nnnn5-c5ccccn5)CC4)c[nH]c23)s1 [B-91] | < 500 nM |
| O=C(C(=O)N1CCN(c2nnnn2-c2nccs2)CC1)c1c[nH]c2c(-n3ccnn3)ncc(F)c12 [E-4] | < 500 nM |
| O=C(C(=O)N1CCN(C2=NCCCN2c2ccccc2)CC1)c1c[nH]c2c(-n3ccnn3)ncc(F)c12 [A-40] | > 500 nM |
| COc1cnc(-n2cnc(C)n2)c2[nH]cc(C(=O)C(=O)N3CCN(c4ncccc4-c4ccccc4)CC3)c12 [G-3a] | < 500 nM |
| COc1cnc(-c2cnc(-n3ccnc3)cn2)c2[nH]cc(C(=O)C(=O)N3CCN(c4nnnn4-c4ccccc4)CC3)c12 [G-2c] | < 500 nM |
| CN(C)CCCN(C)C(=O)c1cc(-c2ncc(F)c3c(C(=O)C(=O)N4CCN(c5nnnn5-c5ccccc5)CC4)c[nH]c23)n[nH]1 [B-38] | < 500 nM |
| COc1cnc(-c2ccc(N3CCN(C(=O)OCC(C)C)CC3)cc2)c2[nH]cc(C(=O)C(=O)N3CCN(c4nnnn4-c4ccccn4)CC3)c12 [B-84] | < 500 nM |
| CCOC(=O)c1cccnc1N1CCN(C(=O)C(=O)c2c[nH]c3c(-n4ccnn4)ncc(F)c23)CC1 [D-24] | < 500 nM |
| CO/N=C(\C)c1ncc(F)c2c(C(=O)C(=O)N3CCN(c4nnnn4-c4ccccc4)CC3)c[nH]c12 [B-48] | < 500 nM |
| CCOC(=O)c1cc(-c2ncc(F)c3c(C(=O)C(=O)N4CCN(c5nnnn5-c5ccccc5)CC4)c[nH]c23)nn1C [B-43] | < 500 nM |
| O=C(C(=O)N1CCN(C2=NS(=O)(=O)N=C2c2ccccc2)CC1)c1c[nH]c2c(-n3ccnn3)ncc(F)c12 [A-55] | < 500 nM |
| C[C@@H]1CN(c2ncccc2C(=O)N2CCOCC2)CCN1C(=O)C(=O)c1c[nH]c2c(-n3ccnn3)ncc(F)c12 [D-29] | > 500 nM |
| COc1cnc(-n2cnc(C)n2)c2[nH]cc(C(=O)C(=O)N3CCN(c4cncnc4-c4ccccc4)CC3)c12 [G-19b] | < 500 nM |
